Test results taken from article PMC8145938, “Triphenilphosphonium Analogs of Chloramphenicol as Dual-Acting Antimicrobial and Antiproliferating Agents” (Antibiotics, 2021).

Tests used:
[1] = tested on: ribosome stalling on trpL mRNA in a cell-free translation system; test: toeprinting (primer extension inhibition) assay on trpL mRNA; format: biochemical; conditions: trpL mRNA template, 30 μM compound
Excerpt: To investigate the mechanism of action of CAM-C10-TPP and CAM-C14-TPP in the translation process, a primer extension inhibition assay (toeprinting) was used. This method allows for the unambiguous identification of drug-induced ribosome stalling sites along the mRNA, with single-nucleotide precision. This technique is also used to determine the context-specificity of antibiotic action. For this experiment, trpL mRNAs were chosen as the template, as in the pDualrep2 reporter system. […] Compared to the results obtained previously for CAM-C4-TPP using rst1 and rst2 mRNA templates, more unambiguous results were obtained using a trpL mRNA template. The main drug-induced ribosome stalling sites are different for CHL and CAM-Cn-TPP, and there are also CAM-Cn-TPP-specific stalling positions.
The toeprinting assay was carried out using trpL mRNA as a template, as described in [73], and the reactions were preincubated for 5 min with 30 μM of the tested compound.

B. subtilis cells = test: membrane potential by DiS-C3-(5) fluorescence; format: cell-based, Bacillus subtilis
Excerpt: Thus, we further examined the effect of CAM-Cn-TPP on the bacterial membrane potential of B. subtilis. In particular, the membrane potential of B. subtilis can be estimated from the fluorescence of the potential-sensitive dye, DiS-C3-(5), by measuring the changing fluorescence. The potential-dependent accumulation of the dye inside the bacterial cell causes quenching and leads to a decrease in fluorescence. Under the influence of substances that reduce the membrane potential, the dye is released and the fluorescence increases. […] Therefore, the action of CAM-Cn-TPP may have a double effect on bacterial cells and be based on the depolarization of the bacterial membrane by analogy with the mechanism of action of Cn-TPP [17].
The membrane potential of B. subtilis was estimated by measuring the fluorescence of the potential-dependent probe, DiS-C3-(5). B. subtilis from the overnight culture were seeded into a fresh LB medium, followed by growth for […], until reaching the optical density of 0.8 at 600 nm. Then, the bacteria were diluted 20-fold in a buffer containing 100 mM of KCl and 10 mM of Tris, pH 7.4. The fluorescence was measured at 670 nm (excitation at 630 nm) using a Fluorat-02-Panorama fluorimeter.

[2] = tested on: MDA-MB-231 and BT-549 TNBC-sensitive and chemoresistant cells; test: cancer cell proliferation / viability assay (MTT); format: cell-based; conditions: 3 days treatment
Excerpt: We recently provided in vivo [67] and in vitro [68] evidence that certain bactericidal antibiotics suppress tumor growth by inducing mitochondrial dysfunction. […] These cells differ from the corresponding parental cells and display a different response to the same microenvironmental stimuli, allowing them to reduce their proliferating rate and survive chemotherapeutic treatment. Here, we tested the abovementioned CAM-TPP derivatives on chemoresistant triple negative breast cancer (TNBC) cell models, as well as on corresponding CSC-like spheroid cells. We created several relevant models based on TNBC cell lines, particularly MDA-MB-231 and BT-549, to determine their resistance to cyclophosphamide. To create CSC-like cells, parental cells were resuspended in nonadherent conditions to form tumorspheres.
The MDA-MB-231 (RRID: CVCL_0062) and BT-549 (RRID: CVCL_1092) cell lines were purchased from ATCC and cultured in DMEM/F12 (Gibco, Life Technologies, 31330-038) supplemented with 10% FBS, 1% Pen-Strep, 1% Sodium Pyruvate, and 1% L-glutamine. Chemoresistant cell lines were established with continuous treatment for 6 months with the anticancer therapeutic agent, cyclophosphamide (Rcyclo), as previously described. These cell lines were authenticated using short tandem repeat (STR) profiling within the last three years. […] The relative numbers of tumourspheres per well were counted manually. […]
The survival assay was performed essentially as described earlier. […] The absorbance was measured at 570 nm in Bio Spec 1601, Shimadzu spectrometer. […] The results were expressed as the means ± SEM. The data were analyzed using the GraphPad Prism 7 PRIZM computer software under the license of the Statistical Department (Vall’ d Hebron Hospital, Barcelona, Spain).

E. coli 70S ribosomes = tested on: E. coli 70S ribosomes; set-up: method as in PMID 33916420; conditions: displacement of BODIPY-ERY from 70S ribosomes; read-out: apparent dissociation constant (KDapp); cited from earlier work

O=C(CCCC[P+](c1ccccc1)(c1ccccc1)c1ccccc1)N[C@H](CO)[C@H](O)c1ccc([N+](=O)[O-])cc1 [CAM-C4-TPP]
drug-induced ribosome stalling site [1]: blocked the ribosome progression at Val6 (Figure 2D, red arrowhead) and slightly blocked it at Ile4
concentration at which the compound takes effect on membrane potential (B. subtilis cells): ≥ 10 µM
effect on proliferation of TNBC cell lines [2]: but not CAM-C4-TPP, significantly reduced the proliferation of TNBC cell lines
Kd (E. coli 70S ribosomes): 610 ± 70 nM
